Measurements reported in patent US9546152B2 (MERCK SHARP & DOHME CORP., priority 2012, dated 2017).

Assays:
human orexin-2 receptor [1] = target: T1, human orexin-2 receptor (Homo sapiens (Human), UniProt O43614); assay: radioligand binding assay, orexin-2 receptor; settings: membranes prepared from CHO cells expressing the OX2 receptor; read-out: hOX2R BIND hKi
Description: (§1) In a typical experiment the OX1 and OX2 receptor antagonistic activity of the compounds of the present invention was determined in accordance with the following experimental method. For intracellular calcium measurements, Chinese hamster ovary (CHO) cells expressing the rat orexin-1 receptor or the human orexin-2 receptor, are grown in Iscove's modified DMEM containing 2 mM L-glutamine, […], 1% hypoxanthine-thymidine supplement, 100 U/ml penicillin, 100 μg/ml streptomycin and 10% heat-inactivated fetal calf serum (FCS). The cells are seeded at 20,000 cells/well into Becton-Dickinson black 384-well clear bottom sterile plates coated with poly-D-lysine. All reagents were from GIBCO-Invitrogen Corp. The seeded plates are incubated overnight at 37° C. and 5% CO2. Ala-6,12 human orexin-A as the agonist is prepared as a 1 mM stock solution in 1% bovine serum albumin (BSA) and diluted in assay buffer (HBSS containing 20 mM HEPES, 0.1% BSA and 2.5 mM probenecid, pH7.4) for use in the assay at a final concentration of 70 pM. Test compounds are prepared as 10 mM stock solution in DMSO, then diluted in 384-well plates, first in DMSO, then assay buffer. On the day of the assay, cells are washed 3 times with 100 μl assay buffer and then incubated for 60 min (37° C., 5% CO2) in 60 μl assay buffer containing 1 μM Fluo-4AM ester, 0.02% pluronic acid, and 1% BSA. The dye loading solution is then aspirated and cells are washed 3 times with 100 μl assay buffer. 30 μl of that same buffer is left in each well. Within the Fluorescent Imaging Plate Reader (FLIPR, Molecular Devices), test compounds are added to the plate in a volume of 25 μl, incubated for 5 min and finally 25 μl of agonist is added. Fluorescence is measured for each well at 1 second intervals for 5 minutes and the height of each fluorescence peak is compared to the height of the fluorescence peak induced by 70 pM Ala-6,12 orexin-A with buffer in place of antagonist. […] Alternatively, compound potency can be assessed by a radioligand binding assay (described in Bergman et. al. Bioorg. Med. Chem. Lett. 2008, 18, 1425-1430) in which the inhibition constant (Ki) is determined in membranes prepared from CHO cells expressing either the OX1 or OX2 receptor. The intrinsic orexin receptor antagonist activity of a compound which may be used in the present invention may be determined by these assays.

human orexin-2 receptor [2] = target: T1, human orexin-2 receptor; assay: FLIPR Ca2+ Flux Assay, orexin-2 receptor; assay type: cell-based; settings: CHO cells expressing the human orexin-2 receptor; agonist 70 pM Ala-6,12 human orexin-A; read-out: hOX2R FLIPR IC50
Description: as §1

rat orexin-1 receptor = rat orexin-1 receptor (Rattus norvegicus (Rat), UniProt P56718); assay: FLIPR Ca2+ Flux Assay, orexin-1 receptor; assay type: cell-based; settings: CHO cells expressing the rat orexin-1 receptor; agonist 70 pM Ala-6,12 human orexin-A; read-out: hOX1R FLIPR IC50
Sequence of rat orexin-1 receptor (P56718 whole entry): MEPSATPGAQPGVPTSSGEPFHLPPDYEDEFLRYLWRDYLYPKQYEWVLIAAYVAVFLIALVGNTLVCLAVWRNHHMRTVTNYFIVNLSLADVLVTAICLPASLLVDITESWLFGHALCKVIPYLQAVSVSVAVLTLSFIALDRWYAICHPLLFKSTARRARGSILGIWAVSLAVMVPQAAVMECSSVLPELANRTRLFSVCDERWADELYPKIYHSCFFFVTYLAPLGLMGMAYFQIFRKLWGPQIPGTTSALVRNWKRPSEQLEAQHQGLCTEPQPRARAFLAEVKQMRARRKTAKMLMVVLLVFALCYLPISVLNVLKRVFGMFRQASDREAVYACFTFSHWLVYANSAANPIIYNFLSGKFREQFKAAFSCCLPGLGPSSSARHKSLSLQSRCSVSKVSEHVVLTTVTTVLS
Description: as §1

T1 sequence (O43614 whole entry): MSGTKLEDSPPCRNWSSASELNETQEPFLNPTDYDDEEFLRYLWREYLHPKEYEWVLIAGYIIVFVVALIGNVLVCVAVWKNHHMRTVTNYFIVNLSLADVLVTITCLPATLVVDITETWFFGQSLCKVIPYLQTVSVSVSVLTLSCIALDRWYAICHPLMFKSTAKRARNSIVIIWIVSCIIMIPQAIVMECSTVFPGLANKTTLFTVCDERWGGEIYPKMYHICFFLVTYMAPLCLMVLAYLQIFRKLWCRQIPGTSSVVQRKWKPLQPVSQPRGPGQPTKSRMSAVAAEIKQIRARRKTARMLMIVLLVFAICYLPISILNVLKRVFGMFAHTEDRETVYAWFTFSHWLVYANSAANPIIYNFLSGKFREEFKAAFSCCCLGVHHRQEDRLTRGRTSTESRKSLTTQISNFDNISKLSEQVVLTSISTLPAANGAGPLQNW

Structure (SMILES) | Ki (human orexin-2 receptor [1]) [nM] | IC50 (human orexin-2 receptor [2]) [nM] | IC50 (rat orexin-1 receptor) [nM]
COc1c(C#N)ccnc1O[C@@H]1CC[C@@H](C)N(C(=O)c2ccccc2-n2ncnn2)C1 [Example 115, 3-Methoxy-2-{[(3R,6R)-6-methyl-1-{[2-(2H-tetrazol-2-yl)phenyl]carbonyl}piperidin-3-yl]oxy}pyridine-4-carbonitrile] | 1.4 | 6 | 1650
COc1c(C#N)ccnc1O[C@@H]1CC[C@@H](C)N(C(=O)c2ccc(F)cc2-c2ncccn2)C1 [Example 110, 2-({(3R,6R)-1-[(4-fluoro-2-pyrimidin-2-ylphenyl)carbonyl]-6-methylpiperidin-3-yl}oxy)-3-methoxypyridine-4-carbonitrile] | 0.6 | 39 | 1240
CCOc1ccccc1C(=O)N1C[C@H](Oc2nccc(C#N)c2C)CC[C@H]1C [Example 19, 2-({(3R,6R)-1-[(2-ethoxyphenyl)carbonyl]-6-methylpiperidin-3-yl}oxy)-3-methylpyridine-4-carbonitrile] | 0.7 | 6 | 2100
Cc1c(C#N)ccnc1O[C@@H]1CC[C@@H](C)N(C(=O)c2ncccc2-c2cscn2)C1 [Example 24, 3-methyl-2-{[(3R,6R)-6-methyl-1-{[3-(1,3-thiazol-4-yl)pyridin-2-yl]carbonyl}piperidin-3-yl]oxy}pyridine-4-carbonitrile] | 3.8 | 24 | 4900
COc1c(C#N)ccnc1O[C@@H]1CC[C@@H](C)N(C(=O)c2cc(F)ccc2-n2nccn2)C1 [Example 99, 2-{[(3R,6R)-1-{[5-fluoro-2-(2H-1,2,3-triazol-2-yl)phenyl]carbonyl}-6-methylpiperidin-3-yl]oxy}-3-methoxypyridine-4-carbonitrile] | 0.4 | 15 | 2430
COc1ccc(C(=O)N2C[C@H](Oc3nccc(C#N)c3C)CC[C@H]2C)c(-n2nccn2)n1 [Example 2, 2-{[(3R,6R)-1-{[6-Methoxy-2-(2H-1,2,3-triazol-2-yl)pyridin-3-yl]carbonyl}-6-methylpiperidin-3-yl]oxy}-3-methylpyridine-4-carbonitrile] | 3 | 21 | 5930
Cc1c(C#N)ccnc1O[C@@H]1CC[C@@H](C)N(C(=O)c2ccc(F)cc2-c2nccs2)C1 [Example 34, 2-{[(3R,6R)-1-{[4-fluoro-2-(1,3-thiazol-2-yl)phenyl]carbonyl}-6-methylpiperidin-3-yl]oxy}-3-methylpyridine-4-carbonitrile] | 0.2 | 9 | 702
CSc1ccccc1C(=O)N1C[C@H](Oc2nccc(C#N)c2C)CC[C@H]1C [Example 61, 3-methyl-2-{[(3R,6R)-6-methyl-1-{[2-(methylsulfanyl)phenyl]carbonyl}piperidin-3-yl]oxy}pyridine-4-carbonitrile] | 1.4 | 35 | 7950
COc1ccc(C(=O)N2C[C@H](Oc3nccc(C#N)c3C)CC[C@H]2C)c(-c2ccccc2)n1 [Example 78, 2-({(3R,6R)-1-[(6-methoxy-2-phenylpyridin-3-yl)carbonyl]-6-methylpiperidin-3-yl}oxy)-3-methylpyridine-4-carbonitrile] | 1.2 | 92 | 1260
Cc1c(C#N)ccnc1O[C@@H]1CC[C@@H](C)N(C(=O)c2ccc(F)cc2C2CC2)C1 [Example 53, 2-({(3R,6R)-1-[(2-cyclopropyl-4-fluorophenyl)carbonyl]-6-methylpiperidin-3-yl}oxy)-3-methylpyridine-4-carbonitrile] | 1.6 | 26 | 5780
Cc1c(C#N)ccnc1O[C@@H]1CC[C@@H](C)N(C(=O)c2cn(C)nc2-c2ccccc2)C1 [Example 45, 3-methyl-2-({(3R,6R)-6-methyl-1-[(1-methyl-3-phenyl-1H-pyrazol-4-yl)carbonyl]piperidin-3-yl}oxy)pyridine-4-carbonitrile] | 12.7 | 91 | 4960
Cc1c(C#N)ccnc1O[C@@H]1CC[C@@H](C)N(C(=O)c2ccsc2-n2nccn2)C1 [Example 39, 3-methyl-2-{[(3R,6R)-6-methyl-1-{[2-(2H-1,2,3-triazol-2-yl)thiophen-3-yl]carbonyl}piperidin-3-yl]oxy}pyridine-4-carbonitrile] | 0.7 | 9 | 1510
COc1ccc(-c2ccccc2C(=O)N2C[C@H](Oc3nccc(C#N)c3C)CC[C@H]2C)cn1 [Example 49, 2-{[(3R,6R)-1-{[2-(6-methoxypyridin-3-yl)phenyl]carbonyl}-6-methylpiperidin-3-yl]oxy}-3-methylpyridine-4-carbonitrile] | 0.5 | 15 | 469
Cc1c(C#N)ccnc1O[C@@H]1CC[C@@H](C)N(C(=O)c2cc(F)cnc2-c2nccs2)C1 [Example 35, 2-{[(3R,6R)-1-{[5-fluoro-2-(1,3-thiazol-2-yl)pyridin-3-yl]carbonyl}-6-methylpiperidin-3-yl]oxy}-3-methylpyridine-4-carbonitrile] | 0.3 | 13 | 453
Cc1c(C#N)ccnc1O[C@@H]1CC[C@@H](C)N(C(=O)c2sccc2-c2nccs2)C1 [Example 37, 3-methyl-2-{[(3R,6R)-6-methyl-1-{[3-(1,3-thiazol-2-yl)thiophen-2-yl]carbonyl}piperidin-3-yl]oxy}pyridine-4-carbonitrile] | 1.2 | 11 | 2270
Cc1c(C#N)ccnc1O[C@@H]1CC[C@@H](C)N(C(=O)c2cc(F)ncc2-c2cncs2)C1 [Example 25, 2-{[(3R,6R)-1-{[2-fluoro-5-(1,3-thiazol-5-yl)pyridin-4-yl]carbonyl}-6-methylpiperidin-3-yl]oxy}-3-methylpyridine-4-carbonitrile] | 6.1 | 43 | > 10000
Cc1nnn(-c2ccccc2C(=O)N2C[C@H](Oc3nccc(C#N)c3C)CC[C@H]2C)n1 [Example 40, 3-methyl-2-{[(3R,6R)-6-methyl-1-{[2-(5-methyl-2H-tetrazol-2-yl)phenyl]carbonyl}piperidin-3-yl]oxy}pyridine-4-carbonitrile] | 0.6 | 11 | 707
Cc1c(C#N)ccnc1O[C@@H]1CC[C@@H](C)N(C(=O)c2ccsc2-c2nccs2)C1 [Example 32, 3-methyl-2-{[(3R,6R)-6-methyl-1-{[2-(1,3-thiazol-2-yl)thiophen-3-yl]carbonyl}piperidin-3-yl]oxy}pyridine-4-carbonitrile] | 0.7 | 29 | 1880
COc1c(C#N)ccnc1O[C@@H]1CC[C@@H](C)N(C(=O)c2ccsc2-c2ncccn2)C1 [Example 108, 3-methoxy-2-({(3R,6R)-6-methyl-1-[(2-pyrimidin-2-ylthiophen-3-yl)carbonyl]piperidin-3-yl}oxy)pyridine-4-carbonitrile] | – | 14 | 713
COc1ccc(C(=O)N2C[C@H](Oc3nccc(C#N)c3OC)CC[C@H]2C)c(-c2ncccn2)n1 [Example 113, 3-methoxy-2-({(3R,6R)-1-[(6-methoxy-2-pyrimidin-2-ylpyridin-3-yl)carbonyl]-6-methylpiperidin-3-yl}oxy)pyridine-4-carbonitrile] | – | 108 | 10000
COc1ccc(C(=O)N2C[C@H](Oc3nccc(C#N)c3C)CC[C@H]2C)c(-c2cnn(C)c2)n1 [Example 80, 2-{[(3R,6R)-1-{[6-methoxy-2-(1-methyl-1H-pyrazol-4-yl)pyridin-3-yl]carbonyl}-6-methylpiperidin-3-yl]oxy}-3-methylpyridine-4-carbonitrile] | – | 171 | 10000
COc1c(C#N)ccnc1O[C@@H]1CC[C@@H](C)N(C(=O)c2ccsc2-n2nccn2)C1 [Example 106, 3-methoxy-2-{[(3R,6R)-6-methyl-1-{[2-(2H-1,2,3-triazol-2-yl)thiophen-3-yl]carbonyl}piperidin-3-yl]oxy}pyridine-4-carbonitrile] | – | 8 | 1960
